Test results reported in patent US20080103110A1, “Compounds” (DRUG DISCOVERY LABORATORY AS, priority 2004, published 2008).
Counter-ions that a name gives are not always drawn. Each block holds one molecule with its values, some of them ahead of it.

Legend:
[1] = target: T1, bovine serum albumin (BSA) (Bos taurus, UniProt P02769); assay: Protein binding studies: BSA solution, centrifugal filter devices, drug in filtrate by HPLC; assay type: in vitro ADME; settings: 37° C.; for % Protein Binding: didanosine derivatives of Examples 24 and 25, 4% BSA; for % Albumin binding: method of Example 7, 4% BSA
T1 construct: a solution of bovine serum albumin (BSA) in water
T1 sequence (P02769 25-607): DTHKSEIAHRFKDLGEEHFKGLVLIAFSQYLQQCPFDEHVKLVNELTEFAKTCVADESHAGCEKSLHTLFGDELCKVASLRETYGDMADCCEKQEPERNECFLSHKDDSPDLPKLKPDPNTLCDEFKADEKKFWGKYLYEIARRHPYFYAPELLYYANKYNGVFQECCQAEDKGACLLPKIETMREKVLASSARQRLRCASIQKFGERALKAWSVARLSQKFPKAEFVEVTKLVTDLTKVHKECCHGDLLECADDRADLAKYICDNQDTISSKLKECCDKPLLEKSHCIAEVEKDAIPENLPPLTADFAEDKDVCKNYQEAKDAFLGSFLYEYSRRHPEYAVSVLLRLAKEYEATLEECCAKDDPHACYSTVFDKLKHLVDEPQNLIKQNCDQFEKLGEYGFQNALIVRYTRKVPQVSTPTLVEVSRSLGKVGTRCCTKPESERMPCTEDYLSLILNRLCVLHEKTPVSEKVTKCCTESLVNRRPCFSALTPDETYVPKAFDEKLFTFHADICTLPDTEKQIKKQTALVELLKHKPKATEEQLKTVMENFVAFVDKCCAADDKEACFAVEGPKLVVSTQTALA
Description: The compound (approximately 5 mg) was dissolved in DMSO (approximately 1.8 ml). A small sample of this DMSO solution (approximately 5 mg) was added to a solution of bovine serum albumin (BSA) in water (approximately 1.8 ml, 4% BSA). Another sample of the DMSO solution (approximately 5 mg) was added to a solution of phosphate buffer pH 7.4 (isotonic) (approximately 1.8 ml).
Both samples were shaken in a water bath for 30 minutes at 37° C.
The devices were centrifugated at 4000 rpm for 1 hour at 37° C.
The amount of drug in the filtrates was determined by HPLC (C-18 column, phosphate buffer pH 2.2/acetonitrile, UV detection).

[2] = tested on: nude mice; assay: Toxicity of 5-O-(azelaoyl) 1-beta-D-arabinofuranosyl-cytosine meglumine salt in nude mice; assay type: in vivo; settings: 8.5 mg/ml solution, 0.1 ml i.p. twice (second injection on day 3), nude mice (20 g) with implanted human colon cancer, observed for 13 days
Description: (§1) A solution of 5′-O-(azelaoyl) 1-β-D-arabinofuranosyl-cytosine meglumine salt was prepared by dissolving N-methyl-D-glucamine (6.0 mg, 0.030 mmol) and 5′-O-(azelaoyl) 1-β-D-arabinofuranosyl-cytosine (8.5 mg, 0.020 mmol) in a sterile saline solution (1.0 ml). The solution was shaken with a ESPE Capmix shaker for 60 seconds before injection.
(§2) The solution for injection (azelaoyl derivative) from Example 46 was administered i.p. twice (0.1 ml) to 4 nude mice (20 g). The mice had implanted human colon cancer on the leg. The second injection was on day 3.

[3] = tested on: implanted human colon cancer; assay: Efficacy of cytarabin azelaic acid derivative versus cytarabin, tumor size in nude mice; assay type: in vivo; settings: solutions of Example 46, 0.1 ml i.p. twice, tumor size determined at day 13
Description: A solution of cytarabin hydrochloride was prepared by dissolving the hydrochloride salt (5.0 mg) in a sterile saline solution (1.0 ml). The solution was shaken with a ESPE Capmix shaker for 60 seconds before injection.
as §1, §2
The solutions (cytarabin and cytarabine azelaic derivative) described in Example 46 were injected as described in Example 47 (4 animals in each group). The size of the tumor was determined at day 13.

[4] = 6-mercaptopurine and 6-mercaptopurine prodrugs
[5] = didanosine and didanosine prodrugs

Structure (SMILES): O=C(O)Cc1ccccc1CC(=O)OC[C@@H]1CC[C@H](n2cnc3c(O)ncnc32)O1 [5′-(2′3′-dideoxyinosine) mono 1,2-benzenediacetic acid ester]
% Protein Binding [1]: 25%

Structure (SMILES): O=C(O)CCc1ccc(CCC(=O)OC[C@@H]2CC[C@H](n3cnc4c(O)ncnc43)O2)cc1 [5′-(2′3′-dideoxyinosine) mono 1,4-benzenedipropionic acid ester]
% Protein Binding [1]: 63%

Structure (SMILES): O=C(O)Cc1cccc(CC(=O)OC[C@@H]2CC[C@H](n3cnc4c(O)ncnc43)O2)c1 [5′-(2′,3′-dideoxyinosine) mono 1,3-benzenediacetic acid ester]
% Protein Binding [1]: 38%

Structure (SMILES): O=C(O)c1cccc(C(=O)OC[C@@H]2CC[C@H](n3cnc4c(O)ncnc43)O2)c1 [5′-(2′,3′-dideoxyinosine) mono 1,3-benzenedicarboxylic acid ester]
% Protein Binding [1]: 51%

Structure (SMILES): O=C(O)Cc1ccc(CC(=O)OC[C@@H]2CC[C@H](n3cnc4c(O)ncnc43)O2)cc1 [5′-(2′,3′-dideoxyinosine) mono 1,4-benzenediacetic acid ester]
% Protein Binding [1]: 28%

Structure (SMILES): O=C(O)c1ccc(C(=O)OC[C@@H]2CC[C@H](n3cnc4c(O)ncnc43)O2)cc1 [5′-(2′,3′-dideoxyinosine) mono 1,4-benzenedicarboxylic acid ester]
% Protein Binding [1]: 44%

% Albumin binding [1, 4]: 10%
Structure (SMILES): Sc1ncnc2nc[nH]c12 [6-Mercaptopurine, reference compound]

% Albumin binding [1, 4]: 72%
Structure (SMILES): COC(=O)CCCCCSc1ncnc2[nH]cnc12 [Example 9, 6-(1H-purin-6-ylthio)-hexanoic acid methyl ester]

% Albumin binding [1, 4]: insoluble
Structure (SMILES): COC(=O)CCCCCCCCCCCSc1ncnc2[nH]cnc12 [Example 10, 12-(1H-purin-6-ylthio)-dodecanoic acid methyl ester]

% Albumin binding [1, 4]: 100%
Structure (SMILES): O=C(O)CCCCCCCCCCCSc1ncnc2[nH]cnc12 [Example 11, 12-(1H-purin-6-ylthio)dodecanoic acid]

% Albumin binding [1, 5]: 100%
Structure (SMILES): O=C(O)CCCCC(=O)OCC1CCC(n2cnc3c(=O)[nH]cnc32)O1 (stereo not drawn) [Example 21, 2′,3′-dideoxy-5′-hydrogen hexanedioate inosine]

% Albumin binding [1, 5]: 10%
Structure (SMILES): O=C(O)CCCCCCC(=O)OCC1CCC(n2cnc3c(=O)[nH]cnc32)O1 (stereo not drawn) [Example 22, 2′,3′-dideoxy-5′-hydrogen octanedioate inosine]

% Albumin binding [1, 5]: 40%
Structure (SMILES): O=C(O)CCCCCCCCCCC(=O)OCC1CCC(n2cnc3c(=O)[nH]cnc32)O1 (stereo not drawn) [Example 23, 2′,3′-dideoxy-5′-hydrogen dodecanedioate inosine]

Structure (SMILES): CC(C)(C)OC(=O)OC[C@@H]1CC[C@H](n2cnc3c(O)ncnc32)O1 [Example 24, 5′-Boc,-2′3′-dideoxyinosine]
% Albumin binding [1, 5]: 94%
% Protein Binding [1]: 8%

Structure (SMILES): CNC[C@H](O)[C@@H](O)[C@H](O)[C@H](O)CO.Nc1ccn([C@@H]2O[C@H](COC(=O)CCCCCCCC(=O)O)[C@@H](O)[C@@H]2O)c(=O)n1 [Example 45, 5′-O-(azelaoyl) 1-β-D-arabinofuranosyl-cytosine meglumine salt]
sign of toxicity [2]: did not show any sign of toxicity
average tumor growth [3]: average tumor growth was higher for cytarabin treated mice than for mice treated with azelaic acid derivative

Structure (SMILES): Nc1ccn([C@@H]2O[C@H](CO)[C@@H](O)[C@@H]2O)c(=O)n1 [cytarabin, cytarabin hydrochloride, reference compound]
average tumor growth [3]: higher for cytarabin treated mice than for mice treated with azelaic acid derivative
